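Interpolation was linear, between the two tested concentrations surrounding the appropriate level; five concentrations were tested over 48 hours in 96-well plates. TGI marks complete inhibition of growth.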
Key:
Assay in all cases: NCI-60 cell line screen, 48 h
HOP-62 NSCLC = system: HOP-62 NSCLC
SW-620 colon = system: SW-620 colon
ACHN renal = system: ACHN renal
KM20L2 colon = system: KM20L2 colon
SK-OV-3 ovarian = system: SK-OV-3 ovarian
LXFL 529 NSCLC = system: LXFL 529 NSCLC
NCI-H23 lung = system: NCI-H23 lung
SN12C renal = system: SN12C renal
SK-MEL-2 melanoma = system: SK-MEL-2 melanoma
SR leukemia = system: SR leukemia
HOP-18 NSCLC = system: HOP-18 NSCLC
EKVX NSCLC = system: EKVX NSCLC
A549 NSCLC = system: A549 NSCLC
DMS 273 small cell lung = system: DMS 273 small cell lung
HL-60(TB) leukemia = system: HL-60(TB) leukemia
M14 melanoma = system: M14 melanoma
NCI-H460 lung = system: NCI-H460 lung
K-562 leukemia = system: K-562 leukemia
OVCAR-3 ovarian = system: OVCAR-3 ovarian
DMS 114 small cell lung = system: DMS 114 small cell lung
MALME-3M melanoma = system: MALME-3M melanoma
SF-539 CNS = system: SF-539 CNS
SF-268 CNS = system: SF-268 CNS
OVCAR-5 ovarian = system: OVCAR-5 ovarian
CAKI-1 renal = system: CAKI-1 renal
OVCAR-8 ovarian = system: OVCAR-8 ovarian
786-0 renal = system: 786-0 renal
HCT-116 colon = system: HCT-116 colon
NCI-H522 lung = system: NCI-H522 lung
HOP-92 NSCLC = system: HOP-92 NSCLC
A498 renal = system: A498 renal
SK-MEL-28 melanoma = system: SK-MEL-28 melanoma
UACC-257 melanoma = system: UACC-257 melanoma
DLD-1 colon = system: DLD-1 colon
UO-31 renal = system: UO-31 renal
U251 CNS = system: U251 CNS
SNB-78 CNS = system: SNB-78 CNS
KM12 colon = system: KM12 colon
HCT-15 colon = system: HCT-15 colon
SNB-75 CNS = system: SNB-75 CNS
SK-MEL-5 melanoma = system: SK-MEL-5 melanoma
RPMI-8226 leukemia = system: RPMI-8226 leukemia
IGROV1 ovarian = system: IGROV1 ovarian
SF-295 CNS = system: SF-295 CNS
M19-MEL melanoma = system: M19-MEL melanoma
HT29 colon = system: HT29 colon
SNB-19 CNS = system: SNB-19 CNS
MOLT-4 leukemia = system: MOLT-4 leukemia
COLO 205 colon = system: COLO 205 colon
NCI-H226 lung = system: NCI-H226 lung
OVCAR-4 ovarian = system: OVCAR-4 ovarian
TK-10 renal = system: TK-10 renal
HCC-2998 colon = system: HCC-2998 colon
LOX IMVI melanoma = system: LOX IMVI melanoma
UACC-62 melanoma = system: UACC-62 melanoma
CCRF-CEM leukemia = system: CCRF-CEM leukemia
XF 498 CNS = system: XF 498 CNS

Measured: TGI

NC(=O)COc1ccc(Br)cc1Br
not listed: OVCAR-4 ovarian | TK-10 renal | HCC-2998 colon | LOX IMVI melanoma | UACC-62 melanoma | CCRF-CEM leukemia | XF 498 CNS
> 100 µM: all other assays above

CCN(CC)C(=O)c1ccc(C)c(N=NN(C)C)c1
not listed: KM20L2 colon | SK-OV-3 ovarian | SR leukemia | HOP-18 NSCLC | HL-60(TB) leukemia | K-562 leukemia | DMS 114 small cell lung | MALME-3M melanoma | OVCAR-5 ovarian | A498 renal | SNB-78 CNS | SNB-75 CNS | RPMI-8226 leukemia | MOLT-4 leukemia | COLO 205 colon | NCI-H226 lung | CCRF-CEM leukemia | XF 498 CNS
> 100 µM: all other assays above

Cc1ccc(S(=O)(=O)N/N=C/CN2C(=O)c3ccccc3C2=O)cc1
not listed: SK-OV-3 ovarian | HOP-18 NSCLC | OVCAR-3 ovarian | SF-268 CNS | OVCAR-5 ovarian | HOP-92 NSCLC | SK-MEL-28 melanoma | SNB-78 CNS | KM12 colon
> 100 µM: all other assays above

— PubChem BioAssay (NCI)
